Measured values from patent publication EP4671365A1, “KIT FOR INDUCING STEM CELLS TO DIFFERENTIATE INTO NK CELLS, USE OF KIT, AND USE OF COMBINATION OF NK CELLS AND TMZ IN TREATMENT FOR TMZ DRUG-RESISTANT GBM” (Xellsmart Biomedical (Suzhou) Co., Ltd, priority 2023, dated 2024).

What was measured:
resistant GBM (T98G) [1] = assay: Cell cycle assay (PI staining, flow cytometry); type: cell-based; details: TMZ 300 µM, compared to control DMSO
Procedure: (§1) TMZ acts on DNA after being absorbed into tumor cells in the human body, causing alkylation damage to the DNAs, thereby forming DNA double-strand breaks or cross-linking, arresting the cell cycle, and triggering the proliferation arrest or apoptosis of the tumor cells. To explore the mechanism by which the resistant GBM cell strains resist TMZ, a cell cycle assay was performed to determine the effect of TMZ on the cell cycle of different GBM cell strains. A. Cell culture and treatment: See Example 5 for the procedures of U87 and T98G cell culture and TMZ treatment. The concentration of TMZ used in this example was 300 µM. B. Preparation of cell samples: The Beyotime cell cycle kit (Beyotime, C1052) was used according to the manufacturer's instructions. 1 × 10^6 cells were added to a centrifuge tube for later use and centrifuged at 1000 g for 3-5 min to precipitate the cells. The supernatant was discarded by pipetting, and 1 mL of pre-cooled PBS was added to resuspend the cells. The mixture was transferred to a 1.5 mL centrifuge tube. The cells were pelleted by centrifugation, and the supernatant was discarded by pipetting. C. Cell fixation: The cells were added to 1 mL of pre-cooled 70% ethanol, mixed well by pipetting, and fixed at 4 °C for 30 min. The mixture was centrifuged at about 1000 g for 3-5 min to pellet the cells. The supernatant was discarded by pipetting, and about 1 mL of PBS pre-cooled in an ice bath was added to resuspend the cells. The cells were pelleted again by centrifugation, and the supernatant was discarded by pipetting. D. Preparation of and staining with propidium iodide (PI) staining solution: Referring to Table 2, an appropriate amount of PI staining solution was prepared according to the number of samples to be tested. Table 2. Preparation of PI staining solutions
(§2) Staining: 0.5 mL of the PI staining solution was added to each tube of cell samples, and the cell pellet was slowly and fully resuspended and incubated in the dark at 37 °C for 30 min. The mixture was preserved at 4 °C or in an ice bath in the dark. The flow cytometry was completed within 24 h after the staining was completed.
(§3) E. Flow cytometry detection and analysis: The red fluorescence was detected at an excitation wavelength of 488 nm and the light scattering was also detected on a flow cytometer (Agilent, Novocyte3000). The cellular DNA content assay and light scattering analysis were performed using an appropriate analysis software (Agilent, Novoexpress).

sensitive GBM (U87) = assay: Cell cycle assay (PI staining, flow cytometry); type: cell-based; details: TMZ 300 µM
Procedure: as §1, §2, §3

T98G = assay: Flow cytometry of immune activation ligands after TMZ treatment; type: cell-based; details: TMZ 1000 µM, 48 h; CD112, CD155, B7-H6, CD54, CD70, CD48, CD1d, PD-L1
Text: Immune surveillance is an important mechanism for identifying and removing tumor cells, and the dynamic expression of proteins related to immune activation on the membrane of tumor cells is also the key to their recognition by immune cells or recognition escape. In this example, the changes in expression of immune-related proteins when GBM is resisting the effect of TMZ were further studied, so as to provide a theoretical basis for the immunotherapy. • A. GBM cell culture and treatment: See Example 5 for the procedures of T98G cell culture. The cells were cultured until an 80%-90% confluence and digested with pancreatin at 37 °C for 5 min. DMEM medium of a two-fold volume was added to stop the digestion. The cell suspension was transferred to a centrifuge tube and centrifuged at 300 g for 5 min. The cell pellet was resuspended in DMEM medium, and the cells were counted by AO/PI staining. According to the counting result, the density of the cell suspension was adjusted to 1 × 10^5 cells/mL. After that, an appropriate volume of TMZ stock solution (100 mM) was added to the cell suspension to reach a final TMZ concentration of 1000 µM in the cell suspension. […]
The cells treated with TMZ for 48 h were digested with a pancreatin digestion solution and centrifuged, and the supernatant was discarded. […] The cells were washed with PBS, centrifuged, resuspended, and detected on a flow cytometer. […]

[2] = in vivo, cited from earlier work
resistant GBM (T98G) [3] = assay: In vitro killing of tumor target cells (CellTiter-Glo); type: cell-based
Procedure: Furthermore, in this example, the in vitro efficacy of iPSC-NK cells in combination with TMZ was explored by monitoring the killing of tumor target cells. • A. The procedures for the culture, digestion, and plating of GBM tumor cells T98G are described in Example 5. • B. TMZ preparation: See Example 5 for the procedures of treating cells. In this example, the cells were pre-treated at 1000 µM for 48 h. • C. iPSC-NK cells were prepared as described in Example 8. • D. Co-incubation for killing. According to the preset effector-to-target ratios (1:8, 1:4, and 1:1), an appropriate volume of iNK cells in an expansion culture was taken (note that the iNK cell viability should be kept at 90% or higher) and counted by AO/PI staining. According to the counting result, the cell suspension was adjusted to a density of 1 × 10^5 cells/mL. The tumor cells were seeded at 1 × 10^4 cells/well. After the adherent culture of T98G cells in the 96-well plates (6 h after re-digestion and inoculation), the NK cell suspension was added to the T98G plates according to the grouping design. After 18 h of co-incubation, the viability of the T98G cells was detected using the CellTiter-Glo® luminescent cell viability assay kit. Three replicates were set in each group. • E. Cell viability assay. At preset time points (8, 16, 24, and 48 h), the cells were collected. The CellTiter-Glo® luminescent cell viability assay kit was used according to the manufacturer's instructions. An appropriate volume of the CellTiter-Glo® solution was mixed with a DMEM medium in a ratio of 1:1 to prepare a working solution. The CellTiter-Glo® working solution was added to the 96-well plate at 50 µL/well. The plate was incubated at room temperature for 10 min in the dark and then detected on a microplate reader for the chemiluminescence. • F. Killing rate calculation. Killing rate (%) = (fluorescence intensity in the untreated group - fluorescence intensity in the treatment group)/fluorescence intensity in the untreated group × 100%. * denotes p < 0.05 in a T test, and ** denotes p < 0.01. […]

TMZ-sensitive GBM (U87) = assay: CellTiter-Glo cell viability assay, sensitivity response to TMZ; type: cell-based
Procedure: (§4) U87 and T98G cells were cultured until an 80%-90% confluence and digested with pancreatin (Beyotime, C0201-100mL) at 37 °C for 5 min. DMEM medium (Gibco, 11965084) of a two-fold volume was added to stop the digestion. The cell suspension was transferred to a centrifuge tube and centrifuged at 300 g for 5 min. The cell pellet was resuspended in DMEM medium, and the cells were counted by AO (acridine orange)/PI (propidium iodide) staining. According to the counting result, the density of the cell suspension was adjusted to 1 × 10^5 cells/mL. The cell suspension was added to the 96-well plate at 100 µL/well as required for grouping, and then the 96-well plate was incubated in an incubator at 37 °C overnight.
(§5) TMZ powder (Sigma, T2577-25MG) was dissolved in an appropriate volume of DMSO to prepare a TMZ stock solution at a concentration of 100 mM. The TMZ solution with the highest concentration (5000 µM) was prepared as follows: 225 µL of the TMZ stock solution was diluted with 4.5 mL of DMEM medium, and the resultant solution was then diluted to give TMZ working solutions at concentrations of 1000 µM, 500 µM, 200 µM, 100 µM, and 10 µM.
(§6) After the U87 and T98G cells were cultured overnight, and the adherent growth and the logarithmic growth phase were observed, the TMZ working solutions at the corresponding working concentration were added according to the grouping design at 100 µL/well, and the cells were incubated in the incubator. […]
(§7) The CellTiter-Glo® luminescent cell viability assay kit (Promega, G7572) was used, and the procedures in the manufacturer's instructions were performed. An appropriate volume of the CellTiter-Glo® solution was mixed with a DMEM medium in a ratio of 1:1 to prepare a working solution. The CellTiter-Glo® working solution was added to the 96-well plate at 50 µL/well. The plate was incubated at room temperature for 10 min in the dark and then detected on a microplate reader (TECAN, Infinite®200 PRO) for the chemiluminescence.
(§8) The assay and detection schemes were the same as those in Example 5.1, and a concentration of 300 µM in the sensitive interval in Example 5.1 was selected as the TMZ concentration.

TMZ-resistant GBM (T98G) = assay: as above; type: cell-based
Procedure: as §4, §5, §6, §7, §8

[4] = TMZ 300 µM, 48 h, compared to control DMSO

For Cn1nnc2c(C(N)=O)ncn2c1=O [TMZ, 3,4-dihydro-3-methyl-4-oxoimidazo[5,1-d]-asymmetric-tetrazol-8-amide], the “DNA in the G2/M phase” value (resistant GBM (T98G) [1]) was “did not change significantly”, the “DNA content in the G2/M phase” value (sensitive GBM (U87); 24 h) was 16.86% and the “DNA content in the G2/M phase” value (sensitive GBM (U87); 48 h) was 23.22%. For the same compound, the “DNA content in the G2/M phase” value (sensitive GBM (U87); 72 h) was 40.01%, the “expression of immune activation ligands” value (T98G) was “up-regulated expression to different extents” and the oral bioavailability ([2]; po) was ~100%. For the same compound, the “concentration detected in the cerebrospinal fluid, of the TMZ plasma concentration” value [2] was “about 20%”, the “killing effect against target cells” value (resistant GBM (T98G) [3]; 8 h, 16 h, 24 h and 48 h, effector-to-target ratios 1:8, 1:4, 1:1, TMZ 1000 µM pretreatment 48 h) was “weak killing effect” and the “killing effects / in vitro killing activity” value (resistant GBM (T98G) [3]; E:T = 1:1, co-incubation 8 h) was “substantially no killing effects”. For the same compound, the killing effect (resistant GBM (T98G) [3]; at 48 h, TMZ 1000 µM) was “about 10%”, the viability at 200 µM (TMZ-sensitive GBM (U87); Homo sapiens, U-87 MG, TMZ 200 µM, 72 h, read-out: viable U87 cell count) was ~50% and the viability at 300 µM (TMZ-sensitive GBM (U87); Homo sapiens, U-87 MG, TMZ 300 µM, at 72 h, read-out: viable U87 cell count) was < 40%. The viability at 500 µM (TMZ-sensitive GBM (U87); Homo sapiens, U-87 MG, TMZ 500 µM, 72 h, read-out: viable U87 cell count) was ~40%, the “growth of U87 cells (microscopic results)” value (TMZ-sensitive GBM (U87); [4]) was “significantly inhibited” and the viability at 200 µM (TMZ-resistant GBM (T98G); Homo sapiens, T98G, TMZ 200 µM, 72 h, read-out: viable T98G cell count) was ≥ 80%. For the same compound, the viability at 300 µM (TMZ-resistant GBM (T98G); Homo sapiens, T98G, TMZ 300 µM, at 72 h, read-out: viable cell count (T98G)) was > 80%, the viability at 500 µM (TMZ-resistant GBM (T98G); Homo sapiens, T98G, TMZ 500 µM, 72 h, read-out: viable T98G cell count) was 70% and the “growth of T98G cells (microscopic results)” value (TMZ-resistant GBM (T98G); [4]) was “not greatly different”.
